One experiment has as its target T1, recombinant full-length USP7 (Homo sapiens, UniProt Q93009).
T1 construct: A 25 μl reaction volume containing recombinant full-length USP7 (62 pM)
The experiment in a line: USP7-mediated ubiquitin-rhodamine cleavage assay. The class given is biochemical. The conditions noted are these: recombinant full-length USP7 62 pM; ubiquitin-rhodamine 100 nM; 30-minute incubation with compound, 1 hour reaction at room temperature; read-out: Potency: USP7 IC50. Summed up:
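Compounds are first incubated with 62 pM enzyme for 30 min at room temperature in pH 7.3 HEPES buffer containing TCEP and BSA. Cleavage of 100 nM ubiquitin-rhodamine proceeds for 1 h before an acid quench, and IC50 is derived from fluorescence.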
T1 sequence (Q93009 whole entry): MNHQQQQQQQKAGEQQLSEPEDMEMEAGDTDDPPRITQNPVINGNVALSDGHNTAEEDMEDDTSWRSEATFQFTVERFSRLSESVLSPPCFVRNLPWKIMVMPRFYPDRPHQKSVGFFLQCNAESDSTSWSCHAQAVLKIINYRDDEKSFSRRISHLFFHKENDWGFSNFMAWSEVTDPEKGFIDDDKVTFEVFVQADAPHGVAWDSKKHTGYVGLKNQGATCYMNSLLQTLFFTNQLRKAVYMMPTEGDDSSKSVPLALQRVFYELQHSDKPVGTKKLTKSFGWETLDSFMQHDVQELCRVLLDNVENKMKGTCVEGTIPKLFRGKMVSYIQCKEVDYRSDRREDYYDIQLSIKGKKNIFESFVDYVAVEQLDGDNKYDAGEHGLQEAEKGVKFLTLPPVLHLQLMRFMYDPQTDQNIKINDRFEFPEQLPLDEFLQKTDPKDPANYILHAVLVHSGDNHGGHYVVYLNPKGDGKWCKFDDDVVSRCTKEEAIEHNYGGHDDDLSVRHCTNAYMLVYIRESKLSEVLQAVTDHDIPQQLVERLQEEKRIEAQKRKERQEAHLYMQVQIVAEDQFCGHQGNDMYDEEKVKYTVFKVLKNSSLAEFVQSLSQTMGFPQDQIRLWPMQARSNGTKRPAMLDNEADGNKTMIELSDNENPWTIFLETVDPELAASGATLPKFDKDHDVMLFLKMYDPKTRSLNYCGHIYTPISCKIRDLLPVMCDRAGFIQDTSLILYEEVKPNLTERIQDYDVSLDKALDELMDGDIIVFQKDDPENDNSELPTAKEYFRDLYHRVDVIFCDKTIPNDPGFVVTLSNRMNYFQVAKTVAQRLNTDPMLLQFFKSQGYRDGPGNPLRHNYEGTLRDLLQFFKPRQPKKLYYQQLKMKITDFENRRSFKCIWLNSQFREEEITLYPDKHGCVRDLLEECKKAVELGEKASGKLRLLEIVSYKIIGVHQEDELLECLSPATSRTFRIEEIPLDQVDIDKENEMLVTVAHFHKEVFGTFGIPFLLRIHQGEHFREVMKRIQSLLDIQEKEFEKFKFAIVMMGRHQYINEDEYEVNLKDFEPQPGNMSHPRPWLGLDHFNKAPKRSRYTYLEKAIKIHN
For orientation: IC50 means the midpoint of a concentration-inhibition curve. Take `Cc1cc(Cl)cc(-c2ncnc3cc(CN4C(=O)C5C(C4=O)C5(C)C)sc23)c1OC1CCNC1(C)C` (centres unmarked) [Example 370, 3-[[4-[5-chloro-2-(2,2-dimethylpyrrolidin-3-yl)oxy-3-methyl-phenyl]thieno[3,2-d]pyrimidin-6-yl]methyl]-6,6-dimethyl-3-azabicyclo[3.1.0]hexane-2,4-dione]: the IC50 is under 1000 nM.

For the molecule `Cc1cc(Cl)cc(-c2ccnc3cc(CO)sc23)c1O[C@@H]1CNC[C@@H]1N=[N+]=[N-]` [Example 191, (7-(2-(((3R,4S)-4-Azidopyrrolidin-3-yl)oxy)-5-chloro-3-methylphenyl)thieno[3,2-b]pyridin-2-yl)methanol], the IC50 lay within 1000 to 10000 nM. The same measure, in the same setting: next, `OCc1cc2nccc(-c3cc(Cl)ccc3OCC3CNC3)c2s1` [Example 29, (7-(2-(Azetidin-3-ylmethoxy)-5-chlorophenyl)thieno[3,2-b]pyridin-2-yl)methanol]: 1000 to 10000 nM; `OCc1cc2nccc(-c3cc(Cl)cc(C4CC4)c3OCC3CNC3)c2s1` [Example 23, (7-(2-(Azetidin-3-ylmethoxy)-5-chloro-3-cyclopropylphenyl)thieno[3,2-b]pyridin-2-yl)methanol]: 1000 to 10000 nM. “1-(7-(2-((3-Azabicyclo[3.1.0]hexan-6-yl)methoxy)-5-chloro-3-methylphenyl)thieno[3,2-b]pyridin-2-yl)propan-1-ol [Example 88]”: the IC50 was 10000 to 30000 nM. Still for that read-out and setting: with `Cc1cc(C#N)cc(-c2ncnc3cc(CO)sc23)c1O[C@H]1CCCNC1` [Example 183, (S)-3-(6-(Hydroxymethyl)thieno[3,2-d]pyrimidin-4-yl)-5-methyl-4-(piperidin-3-yloxy)benzonitrile] the figure was 1000 to 10000 nM; with `Cc1cc(Cl)cc(-c2ccnc3cc(CN4C(=O)CN(C)C4=O)sc23)c1OCC1(C)CNC1` [Example 25, 3-((7-(5-Chloro-3-methyl-2-((3-methylazetidin-3-yl)methoxy)phenyl)thieno[3,2-b]pyridin-2-yl)methyl)-1-methylimidazolidine-2,4-dione], under 1000 nM. Same read-out and setting: with `Cc1cc(Cl)cc(-c2ccnc3cc(CO)sc23)c1O[C@@H]1CN[C@@H](C(C)(C)O)C1` [Example 71, 2-((2R,4S)-4-(4-Chloro-2-(2-(hydroxymethyl)thieno[3,2-b]pyridin-7-yl)-6-methylphenoxy)pyrrolidin-2-yl)propan-2-ol] the figure was 10000 to 30000 nM; with `CCC(O)c1cc2nccc(-c3cc(Cl)cc(C)c3OCC3(C#N)CNC3)c2s1` (centres unmarked) [Example 39, 3-((4-Chloro-2-(2-(1-hydroxypropyl)thieno[3,2-b]pyridin-7-yl)-6-methylphenoxy)methyl)azetidine-3-carbonitrile], under 1000 nM. On to `Cc1cc(Cl)cc(-c2ccnc3cc(CN4C(=O)CCC4C(F)(F)F)sc23)c1O[C@@H]1CNC[C@@H]1F` (stereo partly drawn) [Example 147, 1-((7-(5-Chloro-2-(((3R,4S)-4-fluoropyrrolidin-3-yl)oxy)-3-methylphenyl)thieno[3,2-b]pyridin-2-yl)methyl)-5-(trifluoromethyl)pyrrolidin-2-one], for which the IC50 is under 1000 nM. On the same count and under the same terms, with `Cc1cc(Cl)cc(-c2ccnc3cc(CO)sc23)c1OC1CCC12CNC2` (centres unmarked) [Example 49, (7-(2-((2-Azaspiro[3.3]heptan-5-yl)oxy)-5-chloro-3-methylphenyl)thieno[3,2-b]pyridin-2-yl)methanol] the figure was 1000 to 10000 nM; with `Cc1cc(C#N)cc(-c2ncnc3cc(CN4C(=O)c5ccccc5C4=O)sc23)c1O[C@@H]1CNC[C@@H]1F` [Example 110, 3-(6-((1,3-Dioxoisoindolin-2-yl)methyl)thieno[3,2-d]pyrimidin-4-yl)-4-(((3R,4S)-4-fluoropyrrolidin-3-yl)oxy)-5-methylbenzonitrile], under 1000 nM. Still for that read-out and setting: next, `Cc1cc(Cl)cc(-c2ccnc3cc([C@H](C)N4C(=O)C5CC5C4=O)sc23)c1O[C@H]1CCCNC1` (stereo partly drawn) [Example 288, 3-[(1S)-1-[7-[5-chloro-3-methyl-2-[[(3S)-3-piperidyl]oxy]phenyl]thieno[3,2-b]pyridin-2-yl]ethyl]-3-azabicyclo[3.1.0]hexane-2,4-dione; 2,2,2-trifluoroacetic acid]: under 1000 nM. As for `Cc1cc(Cl)cc(-c2ncnc3cc(CN4C(=O)C5CCCCC5C4=O)sc23)c1O[C@@H]1CNC[C@@H]1F` (stereo partly drawn) [Example 159, 2-((4-(5-Chloro-2-(((3R,4S)-4-fluoropyrrolidin-3-yl)oxy)-3-methylphenyl)thieno[3,2-d]pyrimidin-6-yl)methyl)hexahydro-1H-isoindole-1,3(2H)-dione], the IC50 lay within 1000 to 10000 nM.

Still in this experiment, the particulars now being: recombinant full-length USP7 62 pM; ubiquitin-rhodamine 100 nM; 30-minute incubation, 1 hour reaction at room temperature; read-out: Potency (USP7 IC50).
With `Cc1cc(Cl)cc(-c2ccnc3cc(Cn4c(=O)ccn(CC(F)(F)F)c4=O)sc23)c1OC1CC(N2CCC(F)C2)C1` (centres unmarked) [Example 685, 3-[[7-[5-chloro-2-[3-(3-fluoropyrrolidin-1-yl)cyclobutoxy]-3-methyl-phenyl]thieno[3,2-b]pyridin-2-yl]methyl]-1-(2,2,2-trifluoroethyl)pyrimidine-2,4-dione; 2,2,2-trifluoroacetic acid], the IC50 was under 1000 nM.

Still in this experiment, the particulars now being: recombinant full-length USP7 62 pM; ubiquitin-rhodamine 100 nM; 30-minute pre-incubation, 1 hour reaction at room temperature; read-out: Potency (USP7 IC50).
As to `Cc1cc(Cl)cc(-c2ccnc3cc(Cn4c(=O)ccn(C)c4=O)sc23)c1OC1CN2CCC1C2` [Example 530, 3-[[7-[2-[[(1R,3S,4S)-1-azabicyclo[2.2.1]heptan-3-yl]oxy]-5-chloro-3-methyl-phenyl]thieno[3,2-b]pyridin-2-yl]methyl]-1-methyl-pyrimidine-2,4-dione], the IC50 is under 1000 nM. Same read-out and setting: next, `Cc1cc(Cl)cc(-c2ccnc3cc(Cn4c(=O)ccn(C)c4=O)sc23)c1OC1CCNCC1(C)C` (centres unmarked) [Example 546, 3-[[7-[5-chloro-2-[(3,3-dimethyl-4-piperidyl)oxy]-3-methyl-phenyl]thieno[3,2-b]pyridin-2-yl]methyl]-1-methyl-pyrimidine-2,4-dione; 2,2,2-trifluoroacetic acid]: under 1000 nM. Regarding `Cc1cc(Cl)cc(-c2ncnc3cc(Cn4c(=O)ccn(CC(F)(F)F)c4=O)sc23)c1O[C@H]1CNC[C@@H]1C` [Example 578, 3-[[4-[5-chloro-3-methyl-2-[(3R,4S)-4-methylpyrrolidin-3-yl]oxy-phenyl]thieno[3,2-d]pyrimidin-6-yl]methyl]-1-(2,2,2-trifluoroethyl)pyrimidine-2,4-dione], the IC50 is under 1000 nM. Consider `Cc1cc(Cl)cc(-c2ccnc3cc(CN4C(=O)CCC4=O)sc23)c1OC1CC[C@H](C)NC1` (stereo partly drawn) [Example 462, 1-[[7-[5-chloro-3-methyl-2-[[(6S)-6-methyl-3-piperidyl]oxy]phenyl]thieno[3,2-b]pyridin-2-yl]methyl]pyrrolidine-2,5-dione; 2,2,2-trifluoroacetic acid], for which the IC50 was under 1000 nM. With `CO[C@H]1CNC[C@H]1Oc1c(C)cc(Cl)cc1-c1ccnc2cc(Cn3c(=O)ccn(CC(F)(F)F)c3=O)sc12` [Example 655, 3-[[7-[5-chloro-2-[(3R,4S)-4-methoxypyrrolidin-3-yl]oxy-3-methyl-phenyl]thieno[3,2-b]pyridin-2-yl]methyl]-1-(2,2,2-trifluoroethyl)pyrimidine-2,4-dione], the IC50 was under 1000 nM. `Cc1cc(Cl)cc(-c2ncnc3cc(Cn4c(=O)ccn(CC(F)(F)F)c4=O)sc23)c1O[C@@H]1CNC[C@@H]1C` [Example 595, 3-[[4-[5-chloro-3-methyl-2-[(3S,4S)-4-methylpyrrolidin-3-yl]oxy-phenyl]thieno[3,2-d]pyrimidin-6-yl]methyl]-1-(2,2,2-trifluoroethyl)pyrimidine-2,4-dione]: the IC50 was under 1000 nM. Still for that read-out and setting: next, `Cc1cc(Cl)cc(-c2ccnc3cc(Cn4c(=O)ccn(CC(F)(F)F)c4=O)sc23)c1O[C@@H]1CNC[C@@H]1C` [Example 566, 3-[[7-[5-chloro-3-methyl-2-[(3S,4S)-4-methylpyrrolidin-3-yl]oxy-phenyl]thieno[3,2-b]pyridin-2-yl]methyl]-1-(2,2,2-trifluoroethyl)pyrimidine-2,4-dione]: under 1000 nM; `Cc1cc(Cl)cc(-c2ncnc3cc(Cn4c(=O)ccn(CC(F)(F)F)c4=O)sc23)c1O[C@H]1CC[C@H](N)C1` [Example 543, 3-[[4-[2-[(1S,3S)-3-aminocyclopentoxy]-5-chloro-3-methyl-phenyl]thieno[3,2-d]pyrimidin-6-yl]methyl]-1-(2,2,2-trifluoroethyl)pyrimidine-2,4-dione; 2,2,2-trifluoroacetic acid]: under 1000 nM. For `Cc1cc(Cl)cc(-c2ccnc3cc(Cn4c(=O)ccn(C)c4=O)sc23)c1O[C@@H]1CCCN[C@@H]1C` [Example 468, 3-[[7-[5-chloro-3-methyl-2-[[(2R,3R)-2-methyl-3-piperidyl]oxy]phenyl]thieno[3,2-b]pyridin-2-yl]methyl]-1-methyl-pyrimidine-2,4-dione; 2,2,2-trifluoroacetic acid], the IC50 is under 1000 nM.

`Cc1cc(Cl)cc(-c2ccnc3cc(Cn4c(=O)ccn(CC(F)(F)F)c4=O)sc23)c1O[C@@H]1CCN(CC(F)F)C[C@@H]1C` [Example 642, 3-[[7-[5-chloro-2-[[(3S,4R)-1-(2,2-difluoroethyl)-3-methyl-4-piperidyl]oxy]-3-methyl-phenyl]thieno[3,2-b]pyridin-2-yl]methyl]-1-(2,2,2-trifluoroethyl)pyrimidine-2,4-dione]: the IC50 was under 1000 nM. On the same count and under the same terms, with `Cc1cc(Cl)cc(-c2ccnc3cc(Cn4c(=O)ccn(CC(F)(F)F)c4=O)sc23)c1OCC1COCCN1` (centres unmarked) [Example 646, 3-[[7-[5-chloro-3-methyl-2-(morpholin-3-ylmethoxy)phenyl]thieno[3,2-b]pyridin-2-yl]methyl]-1-(2,2,2-trifluoroethyl)pyrimidine-2,4-dione; 2,2,2-trifluoroacetic acid] the figure was under 1000 nM.

Source of the values: patent publication US10722514B2 (FLX Bio, Inc., priority 2017, dated 2020).
